Structures are written as SMILES. Values after ≈ are worked out from the molar mass of the structure shown. Active and inactive are the calls of the source. No cut-off for these calls is given here.

Drawing on ChEMBL document CHEMBL1212748, “Patients with long-term oral carriage harbor high-persister mutants of Candida albicans” (2010), this text covers Activity and MIC for two compounds.

Assay [1] deals with Candida albicans. Briefly: Antimicrobial activity against Candida albicans high-persister mutants assessed as microbial death at 10 to 100 ug/ml after 48 hrs by broth microdilution method. Type of assay: functional, organism-based. A general note: Broth dilution looks for growth in wells or tubes with falling amounts of substance.
Assay [2] relates to Candida albicans. Briefly: Antimicrobial activity against Candida albicans low-persister mutants assessed as microbial death at 10 to 100 ug/ml after 48 hrs by broth microdilution method. Type of assay: functional, organism-based.
Assay [3] relates to Candida albicans. Briefly: Antimicrobial activity against Candida albicans high-persister mutants assessed as microbial death at 50 ug/ml after 48 hrs by broth microdilution method. The format is functional, organism-based.
Assay [4] deals with Candida albicans. Briefly: Antimicrobial activity against Candida albicans CAF2-1 assessed as microbial death at 10 to 100 ug/ml after 48 hrs by broth microdilution method. The format is functional, organism-based.
The test system of assay [5] is Candida albicans. Briefly: Antimicrobial activity against Candida albicans high-persister mutants after 48 hrs by broth microdilution method. Type of assay: functional.

Consider `C[C@@H]1[C@H](O)[C@@H](C)/C=C/C=C/C=C/C=C/C=C/C=C/C=C/[C@H](O[C@@H]2O[C@H](C)[C@@H](O)[C@H](N)[C@@H]2O)C[C@@H]2O[C@](O)(C[C@@H](O)C[C@@H](O)[C@H](O)CC[C@@H](O)C[C@@H](O)CC(=O)O[C@H]1C)C[C@H](O)[C@H]2C(=O)O`, for which the outcome with Candida albicans [1], in the assay with Candida albicans [2] and with Candida albicans [4] was Active. In addition, the result with Candida albicans [3] was inactive.
Usually MIC stands for the lowest concentration found to suppress growth. Consider `N=C(NCCCCCCNC(=N)NC(=N)Nc1ccc(Cl)cc1)NC(=N)Nc1ccc(Cl)cc1` [CHLORHEXIDINE], for which, in the assay with Candida albicans [5], the MIC is 1.5 µg/mL (≈ 2.97 µM).
